Data reported in patent US7417048B2, “Aryl-substituted derivatives of cycloalkyl and branched chain alkyl carboxylic acids useful as antinociceptive drugs for peripheral targets” (priority 2003, dated 2008).

Columns and labels:
[1] = test system: lips and nasal mucous membranes; experiment: Cooling effect of suspension applied to lips and nasal mucous membranes; type: in vivo, human; conditions: for cooling effect on the lips and on breathing sensation: 20 mg/ml suspension in saline-10% Tween 80, lips and nasal mucous membranes
Description: Sulfadiazine is used as antibiotic for urinary tract infections and its silver salt is also used a topical antibiotic for the treatment of burn wounds. One peripheral antinociceptive compound of this discovery is derived from sulfadiazine as the -ZR″ group, and has the structure illustrated by Formula 3. […] The embodiment, coded as CPS-125, also activated the TRP-M8 coolness receptor, but not TRP-A1. […] Sulfonamides are used as topical and systemic antibiotics. Generally, these drugs are used at doses of 500 mg to gram quantities, and have relatively low toxic side effects except for the risks of renal crystalluria and drug hypersensitivity reactions. […] (St. Louis, Mo.) and coupled to p-menthoyl chloride, using the chemical synthesis described above. Each compound was then tested at 20 mg/ml on the lips and nasal mucous membranes. The compounds were added to sterile saline-10% Tween 80 mixture and stirred using a glass rod until the mixture was a homogeneous suspension. Using a clean glass rod, the suspension was first applied to the lips and nasal vestibule. After this trial, a dropper was used to apply the suspension into the nostrils, at a volume of 0.06 ml in 2 droplets per nostril.

mouse TRP-M8 receptor = molecular target: T1, mouse TRP-M8 receptor (Mus musculus, UniProt Q8R4D5); experiment: Voltage patch-clamp of HEK cells transiently transfected with mouse TRP-M8; type: cell-based; conditions: for activity relative to icilin (integrated inward current, icilin as 100): 1 μM, applied 10 sec, at least 4 cells
T1 construct: expressed in transfected cells; host or cells: human embryonic kidney cells (transient transfection)
Procedure: (§1) Human embryonic kidney cells were transiently transfected with the gene for the mouse TRP-M8 receptor. These cells were then voltage patch-clamped in a standard microscopic apparatus and the test solution electronically applied for 10 sec. The integrated areas of the inward current, measured in picoAmperes were then recorded. Icilin a standard cooling antinociceptive agent was used the positive control. Test substances were applied at 1 μM to at least 4 cells and the current recorded.

human TRP-M8 receptor = molecular target: T2, human TRP-M8 receptor (Homo sapiens, UniProt Q7Z2W7); experiment: Fura-2 calcium fluorescence in HEK cells permanently transfected with human TRP-M8; type: cell-based
T2 construct: expressed in transfected cells; host or cells: human embryonic kidney cells (permanent transfection)
Procedure: (§2) Human embryonic kidney cells were permanently transfected with the gene for the human TRP-M8 receptor. These cells were then incubated with a calcium fluorescence indicator (Fura-2) and incubated at either 29 or 37° C. These cells were then distributed into a 96-well fluorescence-plate image reader with automated drug dilution and computerized software for dose-response analysis. The influx of calcium upon drug stimulated was quantified in fluorescence units.

[2] = cited from earlier work
TRP-A1 = TRP-A1 (Homo sapiens, UniProt O75762); experiment: TRP-A1 activation; type: cell-based
TRP-M8 coolness receptor = TRP-M8 coolness receptor (Homo sapiens, UniProt Q7Z2W7); experiment: TRP-M8 coolness receptor activation (summary statement); type: cell-based
Procedure: as §1
as §2, with “units. […] The EC50 of CPS-125 in this test system was 6 μM and for the sulfodimethoxinyl- derivative, it was 60 μM.” for “units.”

T1 sequence (Q8R4D5 whole entry): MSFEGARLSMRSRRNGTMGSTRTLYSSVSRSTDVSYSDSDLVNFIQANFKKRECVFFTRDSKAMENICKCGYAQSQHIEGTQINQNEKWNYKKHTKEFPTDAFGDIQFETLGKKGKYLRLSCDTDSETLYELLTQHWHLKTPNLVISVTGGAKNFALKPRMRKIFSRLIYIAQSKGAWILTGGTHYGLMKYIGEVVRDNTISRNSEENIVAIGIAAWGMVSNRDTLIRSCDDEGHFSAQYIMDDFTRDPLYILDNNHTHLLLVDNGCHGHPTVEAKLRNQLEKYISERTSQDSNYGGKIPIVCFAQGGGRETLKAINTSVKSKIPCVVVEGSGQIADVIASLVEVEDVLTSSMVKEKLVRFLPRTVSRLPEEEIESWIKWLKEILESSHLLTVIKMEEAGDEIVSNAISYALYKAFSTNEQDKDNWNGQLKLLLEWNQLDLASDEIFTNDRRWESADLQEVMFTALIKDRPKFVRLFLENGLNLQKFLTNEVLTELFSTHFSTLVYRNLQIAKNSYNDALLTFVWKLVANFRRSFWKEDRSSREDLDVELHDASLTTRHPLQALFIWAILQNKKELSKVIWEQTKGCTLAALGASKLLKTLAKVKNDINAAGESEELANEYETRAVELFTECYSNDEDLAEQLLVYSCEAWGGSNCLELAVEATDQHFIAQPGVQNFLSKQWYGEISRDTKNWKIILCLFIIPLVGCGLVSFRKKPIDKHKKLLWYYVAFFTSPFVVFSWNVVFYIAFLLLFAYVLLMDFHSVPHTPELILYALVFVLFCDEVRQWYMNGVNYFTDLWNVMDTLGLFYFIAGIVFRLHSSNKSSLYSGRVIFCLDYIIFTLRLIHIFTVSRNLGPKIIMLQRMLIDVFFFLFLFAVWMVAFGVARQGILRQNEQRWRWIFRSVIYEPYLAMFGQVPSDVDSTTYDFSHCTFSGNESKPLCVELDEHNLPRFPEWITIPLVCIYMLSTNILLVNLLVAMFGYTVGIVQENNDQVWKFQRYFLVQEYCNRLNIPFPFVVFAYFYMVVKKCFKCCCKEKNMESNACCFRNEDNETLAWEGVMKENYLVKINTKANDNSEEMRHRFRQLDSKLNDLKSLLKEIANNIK
T2 sequence (Q7Z2W7 whole entry): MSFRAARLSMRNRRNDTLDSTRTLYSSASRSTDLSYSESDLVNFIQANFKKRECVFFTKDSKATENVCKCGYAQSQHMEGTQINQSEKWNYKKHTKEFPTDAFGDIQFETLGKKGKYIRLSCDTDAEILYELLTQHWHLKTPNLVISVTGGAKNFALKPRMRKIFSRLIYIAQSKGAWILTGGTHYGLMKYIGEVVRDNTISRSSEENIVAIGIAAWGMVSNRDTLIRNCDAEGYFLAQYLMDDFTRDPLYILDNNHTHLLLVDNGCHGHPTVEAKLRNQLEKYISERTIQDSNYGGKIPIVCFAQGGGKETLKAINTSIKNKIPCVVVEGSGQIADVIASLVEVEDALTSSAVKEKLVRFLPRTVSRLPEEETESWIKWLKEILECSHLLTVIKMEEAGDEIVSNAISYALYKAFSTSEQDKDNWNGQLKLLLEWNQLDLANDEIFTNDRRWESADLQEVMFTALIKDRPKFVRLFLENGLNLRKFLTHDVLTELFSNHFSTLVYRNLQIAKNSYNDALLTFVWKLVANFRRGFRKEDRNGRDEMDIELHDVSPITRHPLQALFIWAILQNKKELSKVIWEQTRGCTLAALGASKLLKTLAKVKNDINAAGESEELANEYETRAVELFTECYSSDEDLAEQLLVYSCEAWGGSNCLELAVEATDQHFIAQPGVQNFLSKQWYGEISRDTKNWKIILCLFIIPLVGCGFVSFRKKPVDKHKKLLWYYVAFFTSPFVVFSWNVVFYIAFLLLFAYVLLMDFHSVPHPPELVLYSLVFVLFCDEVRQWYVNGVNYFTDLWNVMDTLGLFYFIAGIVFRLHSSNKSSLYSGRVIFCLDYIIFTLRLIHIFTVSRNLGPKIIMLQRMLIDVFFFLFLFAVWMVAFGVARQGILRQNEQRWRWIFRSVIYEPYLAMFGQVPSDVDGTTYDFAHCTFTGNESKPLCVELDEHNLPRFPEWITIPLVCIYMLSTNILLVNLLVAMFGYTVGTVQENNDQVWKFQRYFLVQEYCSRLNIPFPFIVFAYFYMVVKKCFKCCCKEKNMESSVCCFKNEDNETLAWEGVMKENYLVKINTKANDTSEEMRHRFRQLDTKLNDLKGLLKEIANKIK
TRP-A1, sequence (O75762 whole entry, species assumed): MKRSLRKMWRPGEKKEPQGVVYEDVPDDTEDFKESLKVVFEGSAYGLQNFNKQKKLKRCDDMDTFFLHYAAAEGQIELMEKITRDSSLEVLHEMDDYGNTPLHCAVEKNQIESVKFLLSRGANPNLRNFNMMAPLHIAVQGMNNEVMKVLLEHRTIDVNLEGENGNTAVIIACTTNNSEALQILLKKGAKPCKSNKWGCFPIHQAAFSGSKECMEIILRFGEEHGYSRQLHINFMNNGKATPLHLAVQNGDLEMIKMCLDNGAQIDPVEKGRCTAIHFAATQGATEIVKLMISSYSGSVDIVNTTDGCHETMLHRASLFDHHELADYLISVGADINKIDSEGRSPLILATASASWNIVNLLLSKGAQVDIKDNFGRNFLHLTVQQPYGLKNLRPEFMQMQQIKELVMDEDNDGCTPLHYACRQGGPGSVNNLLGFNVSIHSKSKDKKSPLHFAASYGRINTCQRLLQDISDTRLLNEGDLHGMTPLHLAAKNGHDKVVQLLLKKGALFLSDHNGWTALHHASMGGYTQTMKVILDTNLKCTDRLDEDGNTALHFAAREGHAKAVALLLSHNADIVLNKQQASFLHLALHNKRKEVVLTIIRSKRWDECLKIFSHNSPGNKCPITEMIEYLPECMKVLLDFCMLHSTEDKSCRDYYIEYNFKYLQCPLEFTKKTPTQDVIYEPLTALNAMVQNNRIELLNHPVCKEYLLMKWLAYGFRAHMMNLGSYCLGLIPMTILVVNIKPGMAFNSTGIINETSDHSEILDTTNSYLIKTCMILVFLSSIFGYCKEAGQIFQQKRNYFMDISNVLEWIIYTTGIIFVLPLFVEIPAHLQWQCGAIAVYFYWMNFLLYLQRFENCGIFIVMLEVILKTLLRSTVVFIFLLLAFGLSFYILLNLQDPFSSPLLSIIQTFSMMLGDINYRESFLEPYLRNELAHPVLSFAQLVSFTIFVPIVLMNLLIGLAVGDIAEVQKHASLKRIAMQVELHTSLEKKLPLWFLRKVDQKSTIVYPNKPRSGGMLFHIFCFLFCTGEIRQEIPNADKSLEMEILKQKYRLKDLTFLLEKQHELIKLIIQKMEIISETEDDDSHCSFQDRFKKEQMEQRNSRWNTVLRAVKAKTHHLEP
TRP-M8 coolness receptor, sequence (Q7Z2W7 whole entry): as the sequence (Q7Z2W7 whole entry) above

SMILES	cooling effect on the lips and on breathing sensation [1]	pKa [2]	other results
Cc1noc(NS(=O)(=O)c2ccc(NC(=O)C3CC(C)CCC3C(C)C)cc2)c1C (stereo not shown) [sulfisoxazole analog]	slightly active	–	–
CC1CCC(C(C)C)C(C(=O)Nc2ccc(S(N)(=O)=O)cc2)C1 (stereo not shown) [CPS-126]	inactive	–	activity relative to icilin (integrated inward current, icilin as 100) (mouse TRP-M8 receptor): 2%
COc1ccc(NS(=O)(=O)c2ccc(NC(=O)C3CC(C)CCC3C(C)C)cc2)nn1 (stereo not shown) [sulfamethoxypyridazine analog]	moderate activities	–	–
COc1cc(NS(=O)(=O)c2ccc(NC(=O)C3CC(C)CCC3C(C)C)cc2)nc(OC)n1 (stereo not shown) [sulfadimethoxine analog]	slightly active	–	EC50 (human TRP-M8 receptor; Fura-2, 29 or 37° C., 96-well plate reader, read-out: EC50 (median effective concentration, calcium influx)): 60 µM
Nc1ccc(C(=O)NS(=O)(=O)c2ccc(N)cc2)cc1 [N1-p-aminobenzoylsulfanilamide]	–	5.20	–
CC1CCC(C(C)C)C(C(=O)Nc2ccc(S(=O)(=O)Nc3ncccn3)cc2)C1 (stereo not shown) [CPS-125, 2-Isopropyl-5-methyl-cyclohexanecarboxylic acid [4-(pyrimidin-2-ylsulfamoyl)-phenyl]-amide]	gentle, cooling refreshing effect	–	duration of cooling effect ([1]; 1 mg per nostril, 0.06 ml in 2 droplets per nostril): up to 3 hr; activity relative to icilin (integrated inward current, icilin as 100) (mouse TRP-M8 receptor): 41%; EC50 (mouse TRP-M8 receptor; patch-clamp dose-response, read-out: EC50 for full activation of the receptor): 2 µM; ΔFmax (maximum fluorescence increase at the maximum concentration tested) (human TRP-M8 receptor; Fura-2 fluorescence units): 14,000 units; activation of TRP-A1 (TRP-A1): not; activation of TRP-M8 coolness receptor (TRP-M8 coolness receptor): activated
Nc1ccc(S(=O)(=O)Nc2nncs2)cc1 [S-1,3,4-thiadiazole]	–	4.77	–
Nc1ccc(S(=O)(=O)Nc2nccs2)cc1 [sulfathiazole]	–	7.12	–
COc1cnc(NS(=O)(=O)c2ccc(NC(=O)C3CC(C)CCC3C(C)C)cc2)nc1 (stereo not shown) [sulfameter analog]	moderate activities	–	–
Nc1ccc(S(=O)(=O)Nc2ccccn2)cc1 [sulfapyridine]	–	8.43	–
Nc1ccc(S(=O)(=O)NC(=O)CCl)cc1 [N1-chloroacetylsulfanilamide]	–	3.79	–
